{"source": "patent US20220096515A1", "about": "“Methods and Formulations for Preventing Neurological or Psychiatric Disorders” (Huntington Medical Research Institutes, priority 2020, published 2022)", "key": {"[1]": {"test_system": "Gabrb3^ECKO telencephalon", "experiment": "Prenatal NAD+ treatment (E12-E17), histology/IHC of E18 telencephalon", "format": "in vivo, mouse", "source_text": "Animals: Timed pregnant CD1 mice were purchased from Charles River laboratories, MA. Colonies of GAD65-GFP mice were maintained in our institutional animal facility. Tie2-cre mice and Gabrb3 floxed (Gabrb3^fl/fl) mice were obtained from Jackson Labs. The Tie2-cre transgene is known for uniform expression of cre-recombinase in endothelial cells during embryogenesis and adulthood. To selectively delete Gabrb3 in endothelial cells, Tie2-cre transgenic mice (males) were crossed to Gabrb3^fl/fl mice (females) to generate Tie2-cre; Gabrb3^fl/+ mice (males). These were further crossed with Gabrb3^fl/fl mice (females) to obtain the Gabrb3 conditional knock-outs (Tie2-cre; Gabrb3^fl/fl mice). The day of plug discovery was designated embryonic day 0 (E0). Animal experiments were in full compliance with the NIH Guide for Care and Use of Laboratory Animals and were approved by the HMRI and McLean Institutional Animal Care Committees.\nHistology, immunohistochemistry, and microscopic analysis: Paraffin immunohistochemistry (IHC) was performed on embryonic brains only while frozen section IHC was used on both embryonic and adult brains. Briefly, for paraffin IHC-E18 brains were fixed in zinc fixative (BD Biosciences PharMingen) for 24 h and processed for paraffin histology. Histological stainings with hematoxylin (Vector Laboratories) and eosin (Sigma) were performed on 8 μm coronal sections. Lectin histochemistry (with biotinylated isolectin B4, 1:50, Sigma) as well as IHC was performed on 20 μm sections. Primary antibodies used for IHC were as follows: anti-PHH3 (1:200, Millipore) and anti-NKX2.1, (1:50; Sigma) followed by secondary detection with AlexaFluor conjugates (Invitrogen). DAPI (Vector Laboratories) was used to label nuclei. For frozen section IHC, E18 and P90 brains were removed, fixed in 4% PFA for 24 hours, cryo-protected in sucrose gradient, embedded into OCT medium for frozen blocks; sectioned at 40 μm on a cryostat and immunostained with anti-GABA (1:80, Sigma) and anti -PROX1 (1:80, Millipore) antibodies. Twenty sections from each brain were used for IHC and histology experiments. Uniform penetration of antibodies or stains throughout the section was ascertained and quality of the staining in each digital section was examined. […] All low and high-magnification images were obtained from an FSX100 microscope (Olympus).\nMorphometry: A stereological point grid was superimposed on digital images of biotinylated isolectin-B4+ vessels using ImageJ software. The ratio between points falling on blood vessels and on brain tissue was calculated for each section, and average values were obtained.\nThis vascular deficit in the embryonic telencephalon persisted in the adult cerebral cortex with larger vessel diameters likely correlating with increased perfusion and indicative of functional changes in blood flow in Gabrb3^ECKO vessels. A summary of the embryonic and postnatal phenotype highlights (FIG. 3A) the importance of the endothelial GABA pathway for telencephalic angiogenesis, and for maintaining neuro-vascular interactions. Therefore, given its pro-angiogenic properties (FIGS. 2A-2J), NAD^+ treatment during the prenatal period was tested for its ability to improve angiogenesis in the Gabrb3^ECKO telencephalon. The periventricular ventral-dorsal angiogenesis gradient is established by E11, after which neuronal cells originating from ventricular zones navigate along radial and tangential courses, to adopt final laminar positions and integrate into specific brain circuits. Therefore, the approach was to target only the critical window of mouse prenatal brain development: E12 to E17. In the Gabrb3^ECKO telencephalon, the periventricular vessel gradient is formed normally at E11, but reductions in vascular density and abnormal vascular profiles are observed from E13 onward. […]"}, "[2]": {"test_system": "Gabrb3^ECKO telencephalon", "experiment": "Microarray gene expression profile of MGE and striatal tissue at E18", "format": "in vivo, mouse", "experimental": "Gene expression profile analysis: RNA samples were prepared from saline-treated Gabrb3^fl/fl, saline-treated Gabrb3^ECKO and NAD^+-treated Gabrb3^ECKO groups from three different brain pools. Total RNA from each of the samples was extracted by using the PicoPure RNA Isolation kit (Arcturus) following the supplier's protocol. Microarray was performed with Mouse Gene 2.0 ST Array (Affymetrix) at the Boston University Microarray & Sequencing Resource, Boston, MA. Mouse Gene 2.0 ST CEL files were normalized to produce gene-level expression values using the implementation of the Robust Multiarray Average (RMA) in the affy package (version 1.36.1) included in the Bioconductor software suite (version 2.11). Principal component analysis (PCA) was analyzed and visualized using Transcriptome Analysis Console 4.0 (Affymetrix). Heatmap visualization and analysis were performed using Morpheus (Broad Institute, Boston, Mass., USA; software.broadinstitute.org/GENE-E/), and ranked by t-test statistics. Violin plot visualization was generated with Z-score using GraphPad Prism v8.0 (GraphPad Software, La Jolla Calif. USA). The gene ontology for gene enrichment study was performed in three GO TERM annotation categories by using the Database for Annotation, Visualization and Integrated Discovery (DAVID) v6.8. Mouse Genome Informatics (MGI) (GO TERM structure categories: cerebral cortex interneuron migration; GABAergic neuron differentiation; interneuron development; MGE derived cells).\nIn this exemplary embodiment, to gain deeper insights into NAD^+ mediated specific actions in the subcortical telencephalon, a micro-dissection of the MGE and striatal tissue from telencephalic slices of saline-treated Gabrb3^fl/fl mice, saline-treated Gabrb3^ECKO mice, and NAD^+-treated Gabrb3^ECKO mice at E18 was performed. RNA was further extracted, and microarray hybridization on Mouse Gene 2.0 ST arrays (Affymetrix) was performed for Subsequent gene expression analysis (FIG. 7A). Principal component analysis (PCA) plots depicted strict clustering of triplicates from the three samples in the 3D PCA table (FIG. 8A). Differentially expressed genes (fold change cut off ≥+/−50%) in the three groups were compared and represented as heat maps (FIGS. 7B-7C). […] Genes were further classified into specific categories that are essential for embryonic forebrain development: angiogenesis, neurogenesis, GABA signaling and GABA transcription related genes, and the top differentially expressed genes in each category are shown (FIGS. 9A-9E). […] Additionally, differential expression of 10 marker genes in angiogenesis and GABAergic neuron categories in saline-treated Gabrb3^fl/fl, saline-treated Gabrb3^ECKO, and NAD^+-treated Gabrb3^ECKO groups were represented as violin plots (FIGS. 7D-7G)."}}}
{"compound": "NC(=O)c1ccc[n+]([C@@H]2O[C@H](COP(=O)([O-])OP(=O)(O)OC[C@H]3O[C@@H](n4cnc5c(N)ncnc54)[C@H](O)[C@@H]3O)[C@@H](O)[C@H]2O)c1", "note": "[NAD^+]", "values": [{"measurement": "periventricular vessel densities", "setting": "[1]; 10 mg in 100 μl saline i.p. daily to pregnant dams E12-E17, E18, vs saline-treated Gabrb3^ECKO", "value": "significant improvement in periventricular vessel densities"}, {"measurement": "NKX2.1 expression in MGE", "setting": "[1]; E18", "value": "significantly enriched in the MGE"}, {"measurement": "PROX1 expression", "setting": "[1]; E18", "value": "significantly increased"}, {"measurement": "number of PHH3^+ cells at VZ/SVZ surface of ventral telencephalon", "setting": "[1]; E18", "value": "significantly increased the number of PHH3^+ cells"}, {"measurement": "profile of GABAergic neurons (GABA immunoreactivity)", "setting": "[1]; E18", "value": "restored"}, {"measurement": "vascular patterns around lateral ventricle / ganglionic eminence", "setting": "[1]; E18, 20 μm sections", "value": "uniform vascular patterns were restored"}, {"measurement": "cell cluster in MGE (H&E)", "setting": "[1]; NAD^+-treated Gabrb3^ECKO mice, E18", "value": "a cluster of cells were observed in the medial ganglionic eminence (MGE)"}, {"measurement": "overall morphology of telencephalon (H&E)", "setting": "[1]; treatment E12 to E17, E18", "value": "significantly improved the overall morphology"}, {"measurement": "GABA neuronal subtype and development genes downregulated in Gabrb3^ECKO (Calb2, Sst, Calb1, Sirt2, Ascl1, Nr2f2, Bdnf, Arx, Sox2)", "setting": "[2]; E18", "value": "rescued"}, {"measurement": "GABAergic pathway regulatory and axon guidance genes upregulated in Gabrb3^ECKO (Dlx4, Sirt1, Drp2, Foxg1, Daxx, Ablim1, Nrg3)", "setting": "[2]; E18", "value": "restored to normal expression levels"}, {"measurement": "angiogenesis genes downregulated in Gabrb3^ECKO (Fgfr3, Thbs1, Serpinf1, Tbx1, Angpt1, Mdk, Plxdc1, Efna1, Tspan12)", "setting": "[2]; E18", "value": "restored to normal levels"}, {"measurement": "genes related to inflammation (upregulated in saline-treated Gabrb3^ECKO)", "setting": "[2]; E18", "value": "restored to normal levels"}, {"measurement": "vascular/angiogenesis genes upregulated in Gabrb3^ECKO (Fgf6, Flt1, Hand2, Egf, Itgb3, Plg, Epas1, Bai1, Col4a3, Eng)", "setting": "[2]; E18", "value": "restored to normal expression levels"}, {"measurement": "purinergic receptor signaling genes (microarray)", "setting": "[2]; vs saline-treated Gabrb3^ECKO group", "value": "notable change in purinergic receptor signaling genes"}, {"measurement": "gene expression profile (heat map clusters)", "setting": "[2]; vs saline-treated Gabrb3^ECKO, fold change cut off ≥+/−50%", "value": "shift in the gene expression profile"}]}
